SMILES strings stand for the structures.

Data set [1] deals with murine iNKT hybridoma cells. Nature of the data set: Sphingamide competition with OCH in vitro, APC-free recombinant mCD1d (IL-2 ELISA). The data set is classed as cell-based, mouse. To be noted: JG168 1-20 ug/ml mixed with 1 ug/ml OCH, FIG. 8. The protocol: For in vitro stimulation, murine iNKT hybridoma cells at 5×10^4 cells/well in 96-well plates were incubated with CD1d (loaded with OCH and the competing sphingamide) and levels of iNKT cell activation was monitored by measuring murine IL-2 secretion by ELISA.
(ELISA stands for enzyme-linked immunosorbent assay.)

In data set [2] the test system is iNKT cells in C57BL/6 mice. Nature of the data set: Sphingamide competition with OCH in vivo, serum IL-4 and IFN-γ. More on the design: species or system mouse. The following applies: FIG. 9. The protocol:
Cytokine levels were measured from blood serum using ELISA after 4 hours (IL-4) and 16 hours (IFN-γ).

The conditions of data set [3]: cited from earlier work.
Data set [4] deals with murine iNKT hybridoma cells. Nature of the data set: iNKT hybridoma activation, APC-free assay with recombinant mCD1d (IL-2 ELISA). The following applies: FIG. 5A/5D. The format is cell-based, mouse. The protocol:
(§1) First, the present sphingamide compounds were tested to determine whether they activated iNKT cell hybridomas when the sphingamide was presented to the iNKT cell TCR by (a) an antigen presenting-cell (APC) free assay which uses recombinant mCD1d, (b) an A20 B-cell (an antigen presenting cell) expressing the wild-type (WT) mCD1d, or (c) an A20 B-cell expressing a tail-deleted mCD1d. The tail deleted mCD1d lacks the “YQDI” amino acid sorting motif required for routing CD1d to endosomes (for example, amino acid residues 314-317 of SEQ ID NO: 2 would be missing).
(§2) For in vitro stimulation, murine iNKT hybridoma cells at 5×10^4 cells/well in 96-well plates were stimulated with the 10^5 cells/well glycolipid pulsed BMDCs in cDMEM for 4, 16 or 24 hours at 37° C. with 0.05 μg/ml, 0.1 μg/ml, 0.5 μg/ml, 1 μg/ml, 2 μg/ml, or 5 μg/ml of lipid, and levels of murine IL-2 secretion were determined by ELISA.
The present sphingamide, or amide-lacking versions were tested to determine whether they activated iNKT cell hybridomas when the sphingamide was presented to the iNKT cell TCR by an antigen presenting-cell (APC) free assay which uses recombinant mCD1d. […]
For in vitro stimulation, murine iNKT hybridoma cells at 5×10^4 cells/well were added to the wells containing CD1d and incubated in the presence of 5% CO2 at 37° C. over night. Levels of murine IL-2 secretion were determined by ELISA.

For data set [5], the system named is murine iNKT hybridoma cells. Nature of the data set: iNKT hybridoma activation, A20 B cells expressing wild-type mCD1d (IL-2 ELISA). The data set is classed as cell-based, mouse. The following applies: A20/mCD1d wt, FIG. 5B. How it is done:
as §1, §2
(§3) Tail-deleted mCD1d cannot recycle back into the cell, as the binding site for a required lipid loading factor has been deleted. (see Jin et al., Immunity 2009, 30(6):888-898 for a discussion of the model).

For data set [6], the system named is murine iNKT hybridoma cells. Nature of the data set: iNKT hybridoma activation, A20 B cells expressing tail-deleted mCD1d (IL-2 ELISA). The format is cell-based, mouse. The following applies: tail-deleted mCD1d A20 B cell, FIG. 5C. The protocol:
as §1, §2, §3

The subject of data set [7] is iNKT cells in C57BL/6 mice. Nature of the data set: In vivo activation of iNKT cells, serum cytokines by ELISA. More on the design: species or system mouse.
The subject of a further data set is Vα24+ human NKT cells. Kind of data set: Activation of human iNKT cells in vitro, GM-CSF release (sandwich ELISA). The format is cell-based. To be noted: glycolipid-pulsed PBMCs with Vα24+ human NKT cells, 24 h, FIG. 7. The source says: The isolation and expansion of human Vα24^+ NKT cell lines has been published previously (Rogers, P. R., Matsumoto, A., Naidenko, O., Kronenberg, M., Mikayama, T., and Kato, S. (2004) Expansion of human Vα24^+ NKT cells by repeated stimulation with KRN7000. J. Immunol. Methods 285, 197-214). Human donor peripheral blood mononuclear cells (PBMCs, 1-1.5×10^6/ml) were isolated and cultured in RPMI 1640 medium (Invitrogen) supplemented with 10% (v/v) FBS and 1% (v/v) Pen/Strep/glutamine (10,000 units of penicillin, 10 mg of streptomycin, 29.2 mg/ml L-glutamine; Invitrogen), and cultures were expanded by weekly re-stimulation with αGalCer-pulsed, irradiated PBMC and recombinant human IL-2.
PBMCs (1×10^5 per well) were pulsed with glycolipids, seeded in 96-well plates, and cultured in the presence of 5×10^4 Vα24^+ human NKT cells for 24 h. GM-CSF release was evaluated in a sandwich ELISA following the manufacturer's instructions (R&D Systems).

Consider `CCCCCCCC(=O)N[C@@H](CO[C@H]1OC(CO)[C@H](O)C(O)[C@@H]1O)[C@H](O)[C@H](O)CCCC(=O)NCCCCCCc1ccccc1` (stereo partly drawn) [JG168], for which the “competition with OCH (IL-2 secretion)” value in data set [1] is reported as “No competition was observed”. Moreover, in data set [2] (20 μg JG168 alone i.v.), the “activation of iNKT cells in vivo” value was “did not activate iNKT cells in vivo”. In addition, in data set [2] (1, 5 or 20 μg JG168 + 1 μg OCH i.v.), the “competition with OCH (serum IL-4 and IFN-γ)” value is given as “no competition was observed”.
For `CCCCCCCCCCCCCCCCCCCCCCCC(=O)N[C@@H](CO[C@H]1OC(CO)[C@H](O)C(O)C1O)[C@H](O)[C@H](O)CCCCC` (stereo partly drawn) [OCH], in data set [3], the “solubility in aqueous solutions” value is “poorly soluble”.
Turning to `CCCCCCCCCCCCCC[C@@H](O)[C@@H](O)[C@H](CO[C@H]1OC(CO)[C@H](O)C(O)C1O)NC(=O)CCCCCCC` (stereo partly drawn) [PBS-25], the “solubility in aqueous solutions” value in data set [3] is listed as “readily soluble”. Also, the “IL-2 secretion by iNKT hybridoma” value in data set [4], in data set [5] and in data set [6] was “significant amount of IL-2” throughout.
Regarding `CCCCCCCCCCCCCCCCCCCCCCCCCC(=O)N[C@@H](CO[C@H]1O[C@H](CO)[C@H](O)[C@H](O)[C@H]1O)[C@H](O)[C@H](O)CCCCCCCCCCCCCC` [α-GalCer, N-[(2S,3S,4R)-3,4-Dihydroxy-1-[(2S,3R,4S,5R,6R)-3,4,5-trihydroxy-6-(hydroxymethyl)oxan-2-yl]oxyoctadecan-2-yl]hexacosanamide], in data set [3], the “solubility in aqueous solutions” value was “poorly soluble”. Besides, the “cytokines produced in vivo (IL-4 / IFN-γ)” value in data set [7] (1 μg glycolipid injected i.v., FIG. 12) is “makes both”. The “serum IL-4” value in data set [7] (C57BL/6 mice, 5 μg glycolipid i.v., 4 hours) was “significant amounts”. Also, the “serum IFN-γ” value in data set [7] (C57BL/6 mice, 5 μg glycolipid i.v., 16 hours) is recorded as “significant amounts”. Also, the “IL-2 secretion by iNKT hybridoma” value was “stimulated the secretion of IL-2” in data set [5] and “did not stimulate IL-2 production” in data set [6]. Moreover, the GM-CSF secretion result in the data set on Vα24+ human NKT cells was “significant secretion of GMCSF at all doses”.

(Values after patent US10723750B2, “Sphingamide compounds and methods for binding iNKT cells” (La Jolla Institute for Allergy and Immunology, priority 2015, dated 2020).)
